Values of other authors in patent publication US9650678B2, “Methods for identifying an increased risk of anthracycline-related cardiotoxicity” (CITY OF HOPE, priority 2012, dated 2017).

Tests used:
[1] = factor that reflects the drug's cardiotoxic potential
patients = details: package insert, doxorubicin hydrochloride injection (Teva)
CBR1 = target: T1, CBR1 (Homo sapiens, UniProt P16152)
T1 sequence (P16152 1-277): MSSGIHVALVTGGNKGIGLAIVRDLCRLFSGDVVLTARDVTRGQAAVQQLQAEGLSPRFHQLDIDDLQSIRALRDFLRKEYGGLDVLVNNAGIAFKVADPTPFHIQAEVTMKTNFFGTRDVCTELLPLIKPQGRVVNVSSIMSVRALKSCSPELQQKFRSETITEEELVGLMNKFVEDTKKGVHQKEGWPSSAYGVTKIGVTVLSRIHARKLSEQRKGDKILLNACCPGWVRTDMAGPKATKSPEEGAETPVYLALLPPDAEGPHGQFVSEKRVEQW

For `COc1cccc2c1C(=O)c1c(O)c3c(c(O)c1C2=O)C[C@@](O)(C(C)=O)C[C@@H]3O[C@H]1C[C@H](N)[C@H](O)[C@H](C)O1` [Daunomycin], the “Conversion factor to Doxorubicin Isotoxic Dose” value (“Conversion factor” below) [1] is given as 0.833 (⅚).
For `COc1cccc2c1C(=O)c1c(O)c3c(c(O)c1C2=O)C[C@@](O)(C(=O)CO)C[C@@H]3O[C@H]1C[C@H](N)[C@H](O)[C@H](C)O1` [Doxorubicin], the “Conversion factor” value [1] is listed as 1 and the “total cumulative dose in excess of which risk of potentially fatal congestive heart failure increases rapidly” value (patients) is listed as “greater than 400 mg/m^2”.
For `COc1cccc2c1C(=O)c1c(O)c3c(c(O)c1C2=O)C[C@@](O)(C(=O)CO)C[C@@H]3O[C@H]1C[C@H](N)[C@@H](O)[C@H](C)O1` [Epirubicin], the “Conversion factor” value [1] is given as 0.67 (⅔).
For `CC(=O)[C@]1(O)Cc2c(O)c3c(c(O)c2[C@@H](O[C@H]2C[C@H](N)[C@H](O)[C@H](C)O2)C1)C(=O)c1ccccc1C3=O` [Idarubicin], the “Conversion factor” value [1] is given as 5.
For `COc1cccc2c1C(=O)c1c(O)c3c(c(O)c1C2=O)C[C@@](O)([C@@H](O)CO)C[C@@H]3O[C@H]1C[C@H](N)[C@H](O)[C@H](C)O1` [doxorubicinol], the “synthesis of doxorubicinol, times faster” value (CBR3) is given as 2.6 times and the “rate of doxorubicinol synthesis, fold higher” value (CBR1) is given as 1.5 fold.
